The values that follow come from patent US6696407B1, “Huntington's disease treatment comprising administering aldose reductase inhibitors to increase striatal CNTF” (The Regents of the University of California, priority 1997, dated 2004).

One experiment deals with aldose reductase. As to the kind of experiment: Sciatic nerve polyol content by gas chromatography. The format is in vivo, rat. As for the experimental part:
These studies were conducted with the approval of the San Diego Veterans Administration Animal Studies Subcommittee. Female Sprague-Dawley rats (240-300 g; Charles River, San Diego, Calif.) were housed in cages with wire bottoms to reduce contact with urine and feces. Groups were established and fed either a 40% D-galactose diet or a control diet specially formulated by Purina that contained 40% solka floc, a nonnutritive fiber, to balance nutritional intake. All diets contained 100% of the micronutrients required by rats and, with water, were available ad libitum. Each of these diet groups contained animals that were treated with the ARI, Ponalrestat (50 mg/kg), daily by oral gavage. After two months, rats were anesthetized by intraperitoneal injection (1 ml/kg ip) of pentobarbital sodium (12.5 mg/ml) and diazepam (1.25 mg/ml) in bacteriostatic saline. Under deep anesthesia, motor nerve conduction velocity (MNCV) was measured in the left hindlimb prior to removal of the sciatic nerve. The proximal portion was processed for subsequent light microscopic examination and the distal portion used for gas chromatographic analysis of nerve polyols. The contralateral sciatic nerve was removed and used for assay of CNTF-like neurotrophic activity and either Northern blot or ELISA analysis of CNTF mRNA or protein, respectively.
For determination of water content and dry weight, distal segments of sciatic nerve were lightly blotted, weighed prior to freeze-drying and reweighed. Nerve polyols were measured by gas chromatography with α-methylmannoside as an internal standard (Mizisin et al., (1993) J. Neurol. Sci. 116:67-72) using a Hewlett Packard 5890 gas chromatograph (Hewlett Packard, Avondale, Pa.) fitted with a flame ionization detector and a 25 m×0.2 mm capillary column (Hewlett Packard Ultra 1). Nerve water and polyol contents are expressed as mg and nmol per mg nerve dry weight, respectively.
Data are presented as mean ±SD (N=8 to 10) and were analyzed with a one way ANOVA after which multiple comparisons were made with the Student-Newman-Keuls test. Mean dulcitol levels were compared with an unpaired, two-tailed t test. Control and animals received a diet containing 0% D-galactose and galactose animals a diet containing 40% D-galactose for two months.

Experiment [1] is described as follows: Motor nerve conduction velocity (MNCV). The format is in vivo, rat. The settings on record: Ponalrestat 50 mg/kg daily oral, two months. As for the experimental part:
These studies were conducted with the approval of the San Diego Veterans Administration Animal Studies Subcommittee. Female Sprague-Dawley rats (240-300 g; Charles River, San Diego, Calif.) were housed in cages with wire bottoms to reduce contact with urine and feces. Groups were established and fed either a 40% D-galactose diet or a control diet specially formulated by Purina that contained 40% solka floc, a nonnutritive fiber, to balance nutritional intake. All diets contained 100% of the micronutrients required by rats and, with water, were available ad libitum. Each of these diet groups contained animals that were treated with the ARI, Ponalrestat (50 mg/kg), daily by oral gavage. […] Under deep anesthesia, motor nerve conduction velocity (MNCV) was measured in the left hindlimb prior to removal of the sciatic nerve. […] Evoked responses were recorded with needle electrodes placed in the interosseous muscles of the ipsilateral foot, amplified (×100) with a P15 AC Amplifier (Grass Instruments Co, Quincy, Mass.) and recorded on a 5110 Storage Oscilloscope and 5D10 Waveform Digitizer (Tektronix, Inc., Beaverton, Oreg.). […] Data are presented as mean ±SD (N=8 to 10) and were analyzed with a one way ANOVA after which multiple comparisons were made with the Student-Newman-Keuls test. […] ARI-treated animals received a daily oral gavage (50 mg/kg) of Ponalrestat (ND-Not detected).

The mark [2] stands for this setting: sciatic nerve, 40% D-galactose diet rats, Ponalrestat 50 mg/kg daily oral, two months.

Marks after values point to notes of the source that are not given here.

As to `O=C(O)Cc1nn(Cc2ccc(Br)cc2F)c(=O)c2ccccc12` [Ponalrestat, 3-(4-bromo-2-fluorobenzyl)-4-oxo-3H-phthalazin-1-ylacetic acid], in the experiment on aldose reductase (galactose-fed rats), the “Dulcitol accumulation (in words)” value is listed as “attenuated” and the “Nerve myo-inositol content (in words)” value was “restored”. Besides, in the experiment with aldose reductase (setting [2]), the Dulcitol is listed as 12.2 ± 3.8 nmol/mg dry wt and the myo-Inositol is given as 9.4 ± 1.9^a nmol/mg dry wt. Besides, in the experiment with aldose reductase (sciatic nerve, control diet rats, Ponalrestat 50 mg/kg daily oral, two months), the myo-Inositol is given as 12.3 ± 1.5^b nmol/mg dry wt. For the same molecule, the MNCV in experiment [1] (40% D-galactose diet rats) is listed as 64.8 ± 5.1^a m/s. Further, in experiment [1] (control diet rats), the MNCV is given as 63.9 ± 4.0^a m/s.
